Consider eleven compounds from US9708325B2, “Sulfonimidoylpurinone compounds and derivatives for the treatment and prophylaxis of virus infection” (Hoffmann-La Roche Inc., priority 2015, dated 2017).

The test system of data set [1] is Salmonella typhimurium tester strains (TA1535, TA97, TA98, TA100, and TA102). In words: Ames microsuspension assay. The note with it: five strains, absence and presence of S9. The data set is classed as cell-based. The method, then:
The Ames microsuspension assay examines if a compound causes DNA mutations. The method was based on a modified pre-incubation version described by Kado et al (see references: B. N. Ames, J. McCann, E. Yamasaki, Mutation Res. 1975, 31, 347-364 N.Y. Kado, D. Langley, and E. Eisenstadt, Mutation Res. 1983, 121, 25-32). Five Salmonella typhimurium tester strains (TA1535, TA97, TA98, TA100, and TA102) were treated with the test compound in absence and in presence of an exogenous metabolic activation system (S9). The bacteria were pre-incubated for 1 h, the pre-incubation volume is 210 μL (100 μL of overnight culture, 100 μL of S9 mix (10% S9) or 100 μL phosphate buffer, and 10 μL test compound solution). The overnight cultures were resuspended for the test in cold phosphate buffer. The S9 mix contains potassium chloride, magnesium chloride, sodium phosphate buffered saline, NADP^+ and glucose-6-phosphate. The test tubes are incubated and shaken for 60 minutes at 37° C. 2.2 mL soft agar supplemented with L-histidine and biotin was added afterwards and the content of the tubes were mixed and poured on Vogel-Bonner minimal agar plates.
Three replicate plates for the test compound and negative control or two replicate plates for the positive controls were incubated at 37° C., upside down, for 2 days. Colonies were counted electronically using an automatic image analysis system after having inspected the background lawn for signs of toxicity.
S9 is an in vitro metabolic system which is obtained from liver homogenates by centrifuging them at 9000 g for 20 minutes. It contains CYP450 isoforms, phase-II metabolic enzymes, etc. In the Ames microsuspension assay test, S9 is used to assess mutagenicity of compounds, some of which require metabolic activation to become mutagenic.
Criteria of the Ames microsuspension assay: a positive result is defined as a reproducible, dose-related increase in the number of revertant colonies in at least one of the strains. For TA1535 and TA98, the positive threshold is a 2-fold increase over control. For TA97, TA100 and TA102, the threshold is a 1.5-fold increase.

The next data set in a line: LYSA solubility. As to conditions: for solubility thermodynamic: 0.05 M phosphate buffer, pH 6.5, aqueous buffer, thermodynamic from solid. In kind it is physicochemical. The protocol: LYSA solubility assay is used to determine the aqueous solubility of a compound. Samples were prepared in duplicate from 10 mM DMSO stock solution. […] After one night, the solutions were filtered using a microtiter filter plate. Then the filtrate and its 1/10 dilution were analyzed by HPLC-UV.

Data set [2] can be described thus: GSH adduct screening assay. Also noted: key: No flag: No Flag: no GSH adduct formation observed when compared to control (DMSO). In kind it is in vitro ADME, rat and human. As to conditions: 20 μM, RLM and HLM, 60 minutes. The method, then: The formation of reactive metabolites is an unwanted drug property because of the idiosyncratic clinical adverse effect. GSH adduct formation is used to evaluate the formation of reactive metabolites in vitro. Positive controls were Diclofenac, Troglitazone, Nefazodone and mGluR5. Solvent control was DMSO.
All compounds including positive and solvent control were incubated using a 96-deep-well plate (Eppendorf) at 20 μM (addition of 1 μL of 10 mM DMSO stock solution) in 450 μL of 0.1 M sodium phosphate buffer at pH 7.4 containing rat liver microsomes (RLM) and human liver microsomes (HLM). Microsomal protein concentration is 1 mg/mL. Pipetting was performed using a TECAN pipetting robot. The buffer was prepared at room temperature by combining 2.62 g NaH2PO4.1H2O and 14.43 g Na2HPO4.2H2O dissolved in H2O (Millipore, >18 MΩ) to a weight of 1000 g (pH 7.4). After 5 minutes of pre-incubation at 37° C. the reaction was started by adding 50 μL of buffer containing GSH (100 mM) and NADPH (20 mM). Fresh stock solutions of GSH and NADPH were prepared straight before each experiment. The final concentrations were […] for GSH and 1 mM for NADPH. After 60 minutes of incubation at 37° C. (shaking at 800 rpm) the reaction is quenched with 500 μL of cold acetonitrile and centrifuged at 5000×g at 25° C. for 11 minutes. Before LC-MS/MS analysis the supernatant was split to two fractions, 450 μL and 400 each followed by evaporation using a N2 stream at 35° C. to a volume of approximately […].
Sample clean-up and chromatography of analytes were performed on-line by a column-switching set-up of two HPLC columns. From each sample 50 μL were injected (Shimadzu SilHTC) and loaded with water containing 0.1% formic acid onto a trapping column (Waters Oasis HLB 2.1×10 mm, 25 μm) with a flow rate of 0.3 mL/min. After 1.5 min the trapped analytes were then flushed (included a change in flow direction on the trapping column) onto an analytical column (Waters Atlantis T3 2.1×100 mm, 3 μm) with a total flow of 0.2 mL/min starting with 95/5% water containing 0.1% formic acid/acetonitrile. The fraction of acetonitrile was increased to 20% acetonitrile between 2 and 2.5 minutes, to 70% at 10 minutes and to 98% at 11 minutes. After 12 minutes the analytical column was equilibrated to start conditions (5% acetonitrile). […] The total running time was 14 min per sample.
A triple quadrupole-linear ion trap mass spectrometer 4000 Qtrap equipped with an electrospray ionization source (Turbo V) was used, both from Applied Biosystems/MDS Sciex. Based on a published method of Dieckhaus et al. (2005) a precursor ion survey scan (PreIS) method was used to detect GSH-conjugates in negative ion mode. Briefly, as survey scan ions (400 to 900 amu within 2 seconds) are scanned for precursors of m/z 272 amu, the ion spray voltage was −4200 V, the source temperature 500° C., nitrogen was used as curtain and collision gas. If the parent molecule exceeds a molecular mass of 500 the scan range was changed to 500 amu to 1000 amu within 2 seconds. For signals in the survey scan exceeding 7500 cts (that was approximately 5 times of the background signal), enhanced resolution scan and enhanced product ion scan were triggered which allowed isotope determination and confirmation of a positive GSH adduct by the presence of diagnostic fragment ions. Further instrument settings were as following: Curtain gas: 30 psi, CAD gas: 10 psi Gas 1: 30 psi, Gas 2: 50 psi, declustering potential: −70 V, entrance potential: −10 V, collision energy: −24 V, and cell exit potential −15 V. Data acquisition was performed using Analyst 1.4.2, data analysis, i.e. sample control (solvent) comparisons were performed with Metabolite ID 1.3 (Applied Biosystems/MDS Sciex). (reference: Dieckhaus, C. M., Fernandez-Metzler, C. L., King, R., Krolikowski, P. H., and Baillie, T. A. (2005). Negative ion tandem mass spectrometry for the detection of glutathione conjugates. Chem Res Toxicol 18, 630-638).

Structures are written as SMILES. Converted amounts (≈) assume the structure as drawn.

For the compound `CCCS(=N)(=O)c1nc(N)c2[nH]c(=O)n(Cc3ccccc3)c2n1` (single isomer, unassigned) [Example 4-A, 6-Amino-9-benzyl-2-(propylsulfonimidoyl)-7H-purin-8-one], the Ames result in data set [1] is “negative”. The thermodynamic solubility – broadly, solubility found after equilibrating the solid with the medium – in “LYSA solubility” is 56 µg/mL (≈ 162 µM). Besides, in data set [2], the GSH results was “No flag”.
As to `CCCS(=N)(=O)c1nc(N)c2[nH]c(=O)n(Cc3ccccc3)c2n1` (single isomer, unassigned) [Example 4-B, 6-Amino-9-benzyl-2-(propylsulfonimidoyl)-7H-purin-8-one], the Ames result in data set [1] is “negative”. In addition, the “LYSA” value in the data set “LYSA solubility” (0.05 M phosphate buffer (pH 6.5)) worked out at 50 µg/mL. Also, in data set [2], the GSH results is “No flag”.
As for `CCCS(=N)(=O)c1nc(N)c2[nH]c(=O)n(Cc3ccc(C)cc3)c2n1` (single isomer, unassigned) [Example 29-A, 6-Amino-2-(propylsulfonimidoyl)-9-(p-tolylmethyl)-7H-purin-8-one], in data set [1], the Ames result is “negative”. In the data set “LYSA solubility”, this compound returned a thermodynamic solubility of 6 µg/mL (≈ 16.6 µM). Besides, the GSH results in data set [2] was “No flag”.
Consider `CCS(=N)(=O)c1nc(N)c2[nH]c(=O)n(Cc3ccc(Cl)cc3)c2n1` (single isomer, unassigned) [Example 70-A, 6-Amino-9-[(4-chlorophenyl)methyl]-2-(ethylsulfonimidoyl)-7H-purin-8-one], for which the Ames result in data set [1] is listed as “negative”. The GSH results in data set [2] is “No flag”.
Regarding `CCS(=N)(=O)c1nc(N)c2[nH]c(=O)n(Cc3ccc(Cl)cc3)c2n1` (single isomer, unassigned) [Example 70-B, 6-Amino-9-[(4-chlorophenyl)methyl]-2-(ethylsulfonimidoyl)-7H-purin-8-one], the Ames result in data set [1] is “negative”. In “LYSA solubility”, this compound returned a solubility (thermodynamic) of 5 µg/mL (≈ 13.6 µM). Besides, the GSH results in data set [2] was “No flag”.
The like results for `CCS(=N)(=O)c1nc(N)c2[nH]c(=O)n(Cc3ccc(C)cc3)c2n1` (single isomer, unassigned) [Example 71-A, 6-Amino-2-(ethylsulfonimidoyl)-9-(p-tolylmethyl)-7H-purin-8-one] were, in that order, “negative”, 13 µg/mL (≈ 37.5 µM) and “No flag”.
On to `CCCS(=N)(=O)c1nc(N)c2[nH]c(=O)n(Cc3ccccc3)c2n1` (stereo not drawn) [Example 4, 6-Amino-9-benzyl-2-(propylsulfonimidoyl)-7H-purin-8-one], for which, in data set [1], the Ames result is listed as “negative”. Besides, the solubility (thermodynamic) in “LYSA solubility” was found to be 21 µg/mL (≈ 60.6 µM). Besides, the GSH results in data set [2] was “No flag”.
For the compound `CCCS(=N)(=O)c1nc(N)c2[nH]c(=O)n(Cc3ccc(Cl)cc3)c2n1` (stereo not drawn) [Example 9, 6-Amino-9-[(4-chlorophenyl)methyl]-2-(propylsulfonimidoyl)-7H-purin-8-one], in data set [1], the Ames result is “negative”. Besides, in data set [2], the GSH results is listed as “No flag”.
For the compound `CCCS(=N)(=O)c1nc(N)c2[nH]c(=O)n(Cc3ccc(F)c(F)c3)c2n1` (stereo not drawn) [Example 27, 6-Amino-9-(3,4-difluorophenylmethyl)-2-(propylsulfonimidoyl)-7H-purin-8-one], the Ames result in data set [1] is “negative”. In addition, the thermodynamic solubility in “LYSA solubility” worked out at 7 µg/mL (≈ 18.3 µM). The GSH results in data set [2] is “No flag”.
On to `CCCS(=N)(=O)c1nc(N)c2[nH]c(=O)n(Cc3ccc(C)nc3)c2n1` (stereo not drawn) [Example 34, 6-Amino-9-[(6-methyl-3-pyridyl)methyl]-2-(propylsulfonimidoyl)-7H-purin-8-one], for which, in data set [1], the Ames result is “negative”. Moreover, the GSH results in data set [2] is “No flag”.
With `CCCS(=N)(=O)c1nc(N)c2[nH]c(=O)n(Cc3ccc(C(=O)O)cc3)c2n1` (stereo not drawn) [Example 39, 4-[[6-Amino-8-oxo-2-(propylsulfonimidoyl)-7H-purin-9-yl]methyl]benzoic acid], in data set [1], the Ames result is reported as “negative”. The solubility (thermodynamic) in the data set “LYSA solubility” was more than 520 µg/mL. Further, the GSH results in data set [2] was “No flag”.
